The values that follow come from ChEMBL document CHEMBL1133290, “Quantitative structure-intestinal permeability relationship of benzamidine analogue thrombin inhibitor” (2000).

For the test, the species on record is Rattus norvegicus. The test is described as follows: Everted sac permeability (ESA) of rat small intestine, after addition of thrombin inhibitor. Format: functional.
Turning to `CC(=O)N1CCN(C(=O)C(Cc2cccc(C(=N)N)c2)NS(=O)(=O)NCCc2nccc3ccccc23)CC1` (stereo unspecified), the “Log ESA” value was -0.635.

With `CC(CNS(=O)(=O)NC(Cc1cccc(C(=N)N)c1)C(=O)N1CCCC(C(=O)O)C1)c1ccccc1` (stereo in doubt; 11), the “Log ESA” value was -0.759. Under `CC(=O)N1CCN(C(=O)C(Cc2cccc(C(=N)N)c2)NS(=O)(=O)NCc2ccc3ccccc3c2)CC1` (stereo unspecified) stands -0.932. Then `CC(=O)N1CCN(C(=O)C(Cc2cccc(C(=N)N)c2)NS(=O)(=O)NCc2ccc(CCc3ccccc3)cc2)CC1` (stereo unspecified), with -1.252; and `CC(=O)N1CCN(C(=O)C(Cc2cccc(C(=N)N)c2)NS(=O)(=O)NCc2ccccc2-c2ccccc2)CC1` (stereo in doubt; 5), with -1.071; and `CC(=O)N1CCN(C(=O)C(Cc2cccc(C(=N)N)c2)NS(=O)(=O)NCc2cccc3ccccc23)CC1` (stereo unspecified), with -0.842.

Regarding `CC(=O)N1CCN(C(=O)C(Cc2cccc(C(=N)N)c2)NS(=O)(=O)NCc2ccccc2O)CC1` (stereo unspecified), the “Log ESA” value is on record as -0.514. Then `CC(=O)N1CCN(C(=O)C(Cc2cccc(C(=N)N)c2)NS(=O)(=O)NCc2ccccc2-c2ccccc2)CC1` (stereo in doubt; 20), with -0.987; and `CCOc1ccccc1CNS(=O)(=O)NC(Cc1cccc(C(=N)N)c1)C(=O)N1CCN(C(C)=O)CC1` (stereo unspecified), with -0.876; and `CC(=O)N1CCN(C(=O)C(Cc2cccc(C(=N)N)c2)NS(=O)(=O)NCC(c2ccccc2)c2ccccc2)CC1` (stereo unspecified), with -1.092. Then `COc1ccc(CNS(=O)(=O)NC(Cc2cccc(C(=N)N)c2)C(=O)N2CCN(C(C)=O)CC2)cc1OC` (stereo unspecified), with -0.633; and `CC(=O)N1CCN(C(=O)C(Cc2cccc(C(=N)N)c2)NS(=O)(=O)NCc2cc(Br)cc3ccccc23)CC1` (stereo unspecified), with -1.367.

On to `CCOc1c(CNS(=O)(=O)NC(Cc2cccc(C(=N)N)c2)C(=O)N2CCN(C(C)=O)CC2)sc2ccccc12` (stereo unspecified), for which the “Log ESA” value is reported as -0.983. Then `CC(=O)N1CCN(C(=O)C(Cc2cccc(C(=N)N)c2)NS(=O)(=O)NCc2c[nH]c3ccccc23)CC1` (stereo unspecified), with -0.914.

With `CC(=O)N1CCN(C(=O)C(Cc2cccc(C(=N)N)c2)NS(=O)(=O)NCc2ccc(-c3ccccc3)cc2)CC1` (stereo unspecified), the “Log ESA” value was -1.174. Under `CC(=O)N1CCN(C(=O)C(Cc2cccc(C(=N)N)c2)NS(=O)(=O)NCC(C)c2ccccc2)CC1` (stereo unspecified) stands -0.889; under `CC(=O)N1CCN(C(=O)C(Cc2cccc(C(=N)N)c2)NS(=O)(=O)NCc2cccc3cc(O)ccc23)CC1` (stereo unspecified), -0.59; under `COc1cccc(CNS(=O)(=O)NC(Cc2cccc(C(=N)N)c2)C(=O)N2Cc3ccccc3C2C(=O)O)c1OC` (stereo unspecified), -0.879.

As for `CC(=O)N1CCN(C(=O)C(Cc2cccc(C(=N)N)c2)NS(=O)(=O)NCCc2ccc3c(c2)OCCO3)CC1` (stereo unspecified), the “Log ESA” value was -0.654.

As for `CC(=O)N1CCN(C(=O)C(Cc2cccc(C(=N)N)c2)NS(=O)(=O)NCCc2cccc3ncccc23)CC1` (stereo unspecified), the “Log ESA” value is recorded as -0.686. Under `CC(=O)N1CCN(C(=O)C(Cc2cccc(C(=N)N)c2)NS(=O)(=O)NCCc2cccc(N)c2)CC1` (stereo unspecified) stands -0.75; under `COc1cccc(CNS(=O)(=O)NC(Cc2cccc(C(=N)N)c2)C(=O)N2CCC(C)CC2C(=O)O)c1OC` (stereo unspecified), -1; under `COc1cc(CNS(=O)(=O)NC(Cc2cccc(C(=N)N)c2)C(=O)N2CCN(C(C)=O)CC2)ccc1[N+](=O)[O-]` (stereo unspecified), -0.559.

Regarding `CC(=O)N1CCN(C(=O)C(Cc2cccc(C(=N)N)c2)NS(=O)(=O)NCC2COc3ccccc3O2)CC1` (stereo unspecified), the “Log ESA” value is reported as -0.726.

In the case of `CC(=O)N1CCN(C(=O)C(Cc2cccc(C(=N)N)c2)NS(=O)(=O)NCc2ccc(CO)cc2)CC1` (stereo unspecified), the “Log ESA” value is listed as -0.836. Under `N=C(N)c1cccc(CC(NS(=O)(=O)NCc2cccc3ccccc23)C(=O)N2CCCC(C(=O)O)C2)c1` (stereo in doubt; 12) stands -0.893; under `N=C(N)c1cccc(CC(NS(=O)(=O)NCc2cccc3ccccc23)C(=O)N2CCCC(C(=O)O)C2)c1` (stereo in doubt; 10), -0.752. Under `CC(=O)N1CCN(C(=O)C(Cc2cccc(C(=N)N)c2)NS(=O)(=O)NCCc2ccc3ccccc3c2)CC1` (stereo unspecified) stands -1.032; under `CC(CNS(=O)(=O)NC(Cc1cccc(C(=N)N)c1)C(=O)N1CCCC(C(=O)O)C1)c1ccccc1` (stereo in doubt; 9), -0.762; under `CC(=O)N1CCN(C(=O)C(Cc2cccc(C(=N)N)c2)NS(=O)(=O)NCc2ccccc2)CC1` (stereo unspecified), -0.81. Under `COc1cccc(CNS(=O)(=O)NC(Cc2cccc(C(=N)N)c2)C(=O)N2CCN(C(C)=O)CC2)c1O` (stereo unspecified) stands -0.833; under `CC(=O)N1CCN(C(=O)C(Cc2cccc(C(=N)N)c2)NS(=O)(=O)NCc2ccc(Cl)cc2[N+](=O)[O-])CC1` (stereo unspecified), -0.67. Take `CC(=O)N1CCN(C(=O)C(Cc2cccc(C(=N)N)c2)NS(=O)(=O)NCCc2cc3c(cc2[N+](=O)[O-])OCO3)CC1` (stereo unspecified): the “Log ESA” value was -0.564.

Consider `COc1ccc2c(CNS(=O)(=O)NC(Cc3cccc(C(=N)N)c3)C(=O)N3CCN(C(C)=O)CC3)cccc2c1` (stereo unspecified), for which the “Log ESA” value is reported as -0.86. Consider `CC(=O)N1CCN(C(=O)C(Cc2cccc(C(=N)N)c2)NS(=O)(=O)NCCc2cccc([N+](=O)[O-])c2)CC1` (stereo unspecified), for which the “Log ESA” value is -0.688. As for `COc1ccc(CNS(=O)(=O)NC(Cc2cccc(C(=N)N)c2)C(=O)N2CCN(C(C)=O)CC2)c(OC)c1` (stereo unspecified), the “Log ESA” value is recorded as -0.602. As to `COc1ccccc1CNS(=O)(=O)NC(Cc1cccc(C(=N)N)c1)C(=O)N1CCN(C(C)=O)CC1` (stereo unspecified), the “Log ESA” value is -0.815. Then `CC(=O)N1CCN(C(=O)C(Cc2cccc(C(=N)N)c2)NS(=O)(=O)NCCc2cccc3ccccc23)CC1` (stereo unspecified), with -1.114; and `CC(=O)N1CCN(C(=O)C(Cc2cccc(C(=N)N)c2)NS(=O)(=O)NCC2CNc3ccccc3C2)CC1` (stereo unspecified), with -0.674. Under `CNC1CCN(C(=O)C(Cc2cccc(C(=N)N)c2)NS(=O)(=O)NCc2cccc(OC)c2OC)CC1` (stereo unspecified) stands -0.686. As for `COc1cccc(CNS(=O)(=O)NC(Cc2cccc(C(=N)N)c2)C(=O)N2CCN(C(C)=O)CC2)c1` (stereo unspecified), the “Log ESA” value is listed as -0.804.

Regarding `CC(=O)N1CCN(C(=O)C(Cc2cccc(C(=N)N)c2)NS(=O)(=O)NCCc2ccc3c(c2)OCO3)CC1` (stereo unspecified), the “Log ESA” value is on record as -0.636. For the molecule `CC(=O)N1CCN(C(=O)C(Cc2cccc(C(=N)N)c2)NS(=O)(=O)NCCCc2ccccc2C(=O)N2CCCC2)CC1` (stereo unspecified), the “Log ESA” value was -1.027. Under `CC(=O)N1CCN(C(=O)C(Cc2cccc(C(=N)N)c2)NS(=O)(=O)NCc2cc(C)c(C)c(C)c2)CC1` (stereo unspecified) stands -0.818; under `CC(=O)N1CCN(C(=O)C(Cc2cccc(C(=N)N)c2)NS(=O)(=O)NCCOC2CCCCC2)CC1` (stereo unspecified), -0.708.

For `CC(=O)N1CCN(C(=O)C(Cc2cccc(C(=N)N)c2)NS(=O)(=O)NCC(C)(c2ccccc2)c2ccccc2)CC1` (stereo unspecified), the “Log ESA” value is on record as -1.456.

As to `CC(=O)N1CCN(C(=O)C(Cc2cccc(C(=N)N)c2)NS(=O)(=O)NCC2CCCN2Cc2ccccc2)CC1` (stereo unspecified), the “Log ESA” value is listed as -0.963. As for `CC(=O)N1CCN(C(=O)C(Cc2cccc(C(=N)N)c2)NS(=O)(=O)NCc2cccc(Oc3ccccc3)c2)CC1` (stereo unspecified), the “Log ESA” value was -1.149. Under `CC(=O)N1CCN(C(=O)C(Cc2cccc(C(=N)N)c2)NS(=O)(=O)NCc2c(F)c(F)c(F)c(F)c2F)CC1` (stereo unspecified) stands -0.65. As for `CC(=O)N1CCN(C(=O)C(Cc2cccc(C(=N)N)c2)NS(=O)(=O)NCC2CCCCO2)CC1` (stereo unspecified), the “Log ESA” value is -0.708. Under `COc1cccc(CNS(=O)(=O)NC(Cc2cccc(C(=N)N)c2)C(=O)N2CCN(CCO)CC2)c1OC` (stereo unspecified) stands -0.796.
